From the SangsterLogP compilation

| Compound | logP |
| --- | --- |
| Cc1ccc2c(c1)[C@H]1CN(C)CC[C@H]1N2 (relative stereo) | 1.6 |
| CCCCCCCCCCCCCCCC(=O)N1c2ccc(C)cc2[C@H]2CN(C)CC[C@H]21 (relative stereo) | 7.33 |
| CCCCCCCCCCCC(=O)N1c2ccc(C)cc2[C@H]2CN(C)CC[C@H]21 (relative stereo) | 5.66 |
| Cc1ccc2c(c1)[C@H]1CN(C)CC[C@H]1N2C(=O)C=Cc1ccccc1 (relative stereo) | 3.49 |
| CCCCC(CC)C(=O)N1c2ccc(C)cc2C2CN(C)CCC21 (stereo not given) | 4.14 |
| CC(=O)N1c2ccc(C)cc2[C@H]2CN(C)CC[C@H]21 (relative stereo) | 1.25 |
| CCCCCCCCCCCCCC(=O)N1c2ccc(C)cc2[C@H]2CN(C)CC[C@H]21 (relative stereo) | 6.7 |
| CCCCCCC(=O)N1c2ccc(C)cc2[C@H]2CN(C)CC[C@H]21 (relative stereo) | 3.57 |
| CCCCCCCCCC(=O)N1c2ccc(C)cc2[C@H]2CN(C)CC[C@H]21 (relative stereo) | 4.83 |
| CCCCCCCCC(=O)N1c2ccc(C)cc2[C@H]2CN(C)CC[C@H]21 (relative stereo) | 4.41 |
